{
  "source": "paper PMC12274840",
  "about": "(The Journal of Biological Chemistry, 2025)",
  "key": {"[1]": {"system": "E. coli KA797 cells carrying pUK21 with CTX-M-14 WT (Tat)", "assay": "microbe, parasite or virus in culture", "type": "cell-based", "settings": "in combination with 100 μg/ml carbenicillin"}, "[2]": {"system": "E. coli KA797 cells carrying pUK21 with TEM-1 WT (Sec)", "assay": "microbe, parasite or virus in culture", "type": "cell-based", "settings": "in combination with 100 μg/ml carbenicillin"}, "[3]": {"system": "E. coli KA797 cells carrying BlaC position 105 library", "type": "cell-based, Escherichia coli", "settings": "for Fi AVG (average fitness): average of replicates"}, "[4]": {"system": "E. coli KA797 cells carrying pUK21 with BlaC WT (Tat)", "assay": "microbe, parasite or virus in culture", "type": "cell-based", "settings": "in combination with 100 μg/ml carbenicillin"}, "[5]": {"system": "E. coli KA797 cells carrying pUK21 with NmcA (pelB/Sec)", "assay": "microbe, parasite or virus in culture", "type": "cell-based", "settings": "in combination with 25 μg/ml carbenicillin"}},
  "note": "Where two headings read alike, the source gives them in different places.",
  "data": [
    {"molecule": "CC1(C)[C@H](C(=O)O)N2C(=O)C[C@H]2S1(=O)=O", "note": "[sulbactam]", "values": [
      {"measurement": "MIC of inhibitor", "setting": "[1]", "value": 32, "unit": "µg/mL"},
      {"measurement": "MIC of inhibitor", "setting": "[2]", "value": 32, "unit": "µg/mL"},
      {"measurement": "Fi AVG (average fitness)", "setting": "[3]; AA 105 Ala (BlaC I105A), relative to WT Ile", "value": -0.022},
      {"measurement": "Fi AVG (average fitness)", "setting": "[3]; AA 105 Arg (BlaC I105R), relative to WT Ile", "value": -0.000687},
      {"measurement": "Fi AVG (average fitness)", "setting": "[3]; AA 105 Asn (BlaC I105N), relative to WT Ile", "value": 0.167},
      {"measurement": "Fi AVG (average fitness)", "setting": "[3]; AA 105 Asp (BlaC I105D), relative to WT Ile", "value": -0.060},
      {"measurement": "Fi AVG (average fitness)", "setting": "[3]; AA 105 Cys (BlaC I105C), relative to WT Ile", "value": -0.004},
      {"measurement": "Fi AVG (average fitness)", "setting": "[3]; AA 105 Gln (BlaC I105Q), relative to WT Ile", "value": 0.070},
      {"measurement": "Fi AVG (average fitness)", "setting": "[3]; AA 105 Glu (BlaC I105E), relative to WT Ile", "value": 0.009},
      {"measurement": "Fi AVG (average fitness)", "setting": "[3]; AA 105 Gly (BlaC I105G), relative to WT Ile", "value": 0.023},
      {"measurement": "Fi AVG (average fitness)", "setting": "[3]; AA 105 His (BlaC I105H), relative to WT Ile", "value": 0.133},
      {"measurement": "Fi AVG (average fitness)", "setting": "[3]; AA 105 Ile (BlaC WT, reference)", "value": 0.000},
      {"measurement": "Fi AVG (average fitness)", "setting": "[3]; AA 105 Leu (BlaC I105L), relative to WT Ile", "value": 0.101},
      {"measurement": "Fi AVG (average fitness)", "setting": "[3]; AA 105 Lys (BlaC I105K), relative to WT Ile", "value": 0.043},
      {"measurement": "Fi AVG (average fitness)", "setting": "[3]; AA 105 Met (BlaC I105M), relative to WT Ile", "value": -0.015},
      {"measurement": "Fi AVG (average fitness)", "setting": "[3]; AA 105 Phe (BlaC I105F), relative to WT Ile", "value": 0.205},
      {"measurement": "Fi AVG (average fitness)", "setting": "[3]; AA 105 Pro (BlaC I105P), relative to WT Ile", "value": 0.056},
      {"measurement": "Fi AVG (average fitness)", "setting": "[3]; AA 105 Ser (BlaC I105S), relative to WT Ile", "value": 0.083},
      {"measurement": "Fi AVG (average fitness)", "setting": "[3]; AA 105 Thr (BlaC I105T), relative to WT Ile", "value": 0.012},
      {"measurement": "Fi AVG (average fitness)", "setting": "[3]; AA 105 Trp (BlaC I105W), relative to WT Ile", "value": 0.218},
      {"measurement": "Fi AVG (average fitness)", "setting": "[3]; AA 105 Tyr (BlaC I105Y), relative to WT Ile", "value": 0.087},
      {"measurement": "Fi AVG (average fitness)", "setting": "[3]; AA 105 Val (BlaC I105V), relative to WT Ile", "value": 0.121},
      {"measurement": "WT abs Fi 1", "setting": "[3]; absolute fitness of BlaC WT (Ile 105), replicate 1", "value": -0.251},
      {"measurement": "WT abs Fi 2", "setting": "[3]; absolute fitness of BlaC WT (Ile 105), replicate 2", "value": 0.228},
      {"measurement": "WT abs Fi 3", "setting": "[3]; absolute fitness of BlaC WT (Ile 105), replicate 3", "value": -0.183},
      {"measurement": "MIC of inhibitor", "setting": "[4]", "value": 4, "unit": "µg/mL"},
      {"measurement": "MIC of inhibitor", "setting": "[5]", "value": 32, "unit": "µg/mL"}
    ]}
  ]
}
